Measured values reported in patent US20070066672A1, “Benzimidazole derivatives and use thereof as peptide deformylase inhibitors” (Arpida A/S, priority 2003, published 2007).
Values belong to the compound of their own block, whether it stands above or below them.

Legend:
[1] = target: T1, Peptide Deformylase (PDF) (Escherichia coli, UniProt P0A6K3); test: Bacterial peptide deformylase (PDF) assay, colorimetric cell free, enzyme from E. coli; format: biochemical
T1 construct: made in house
From the text: (§1) To find inhibitors of Peptide Deformylase (PDF), a colorimetric cell free assay for measuring the enzymatic activity of PDF has been adapted to the microtiter plate format (96 wells). The assay comprises three components, purified PDF, f-Met-Ala as substrate and TNBS as the detecting agent of primary amino groups. The resulting TNP_NH-Met-Ala sulfite complex can be detected at 420 nm. PDF enzymes, containing Fe^2+ as the native metal, are purified and are stabilized by the addition of tris(2-carboxyethyl)phosphine (TCEP).
(§2) The IC50 value of a compound of the invention as a bacterial PDF inhibitor was determined using the following assay.
(§3) Assay buffer 0.1 M MOPS pH was adjusted to 7.2 with NaOH, containing 0.25 M NaCl, 100 μg/mL catalase and 1 mg/mL BSA.
(§4) E. coli enzyme (2.5 mg/ml) 10 μl+290 μl Assay buffer, 1 μl per ml enzyme mix. S. aureus (15 mg/ml) 10 μl+990 μl Assay buffer, 0.3 μl per ml enzyme mix.
(§5) Substrate mix: 10 mM f-Met-Ala was made up from 200 mM f-Met-Ala in methanol with assay buffer.
(§6) TNBS solution: Freshly dilute 1 M TNBS stock solution diluted 1:10 with water.
(§7) Buffer C: 0.5 M borate buffer adjusted to pH 9.5 with NaOH.
(§8) Buffer D: 0.2 ml of freshly prepared 0.5 M Na2SO3 was mixed with 9.8 mL of 0.5M NaH2PO4.
(§9) Inhibitor solution: 2 mM Sodium 4-(hydroxymercurio)benzoate in assay buffer.
(§10) Compound mix: Compound of formula I dissolved in DMSO in a 10 mg/mL stock solution. Further dilutions were made in DMSO in the concentration range between 0.05 to 100 mM.
(§11) The assay was performed in a 96 Microtiter plate containing test compound. To each well containing test compound mix was added 75 microliter of enzyme mix from E. coli followed by the addition of 25 microliter of substrate mix. The resulting mix was incubated for 30 minutes at room temperature with shaking. TNBS solution (50 microliter/well) was added and the resulting mixture was incubated for 15 minutes under shaking. Buffer C was then added (20 microliter/well). After incubating at room temperature for 15 minutes under shaking, buffer D was added (50 microliter/well). The optical […] was then measured at 420 nm, thereby determining the IC50 value.

[2] = target: T2, Peptide Deformylase (PDF) (Staphylococcus aureus, UniProt P68826); test: Bacterial peptide deformylase (PDF) assay, colorimetric cell free, enzyme from S. aureus; format: biochemical; details: f-Met-Ala substrate, TNBS detection at 420 nm
T2 construct: made in house
T2 sequence (P68826 1-183): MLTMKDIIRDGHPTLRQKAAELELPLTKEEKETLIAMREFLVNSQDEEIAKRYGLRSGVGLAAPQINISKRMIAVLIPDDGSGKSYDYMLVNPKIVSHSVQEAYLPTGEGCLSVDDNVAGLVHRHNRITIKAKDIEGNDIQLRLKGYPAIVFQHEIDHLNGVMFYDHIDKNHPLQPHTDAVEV
From the text: as §1, §2, §3, §4, §5, §6, §7, §8, §9, §10, §11
The assay was repeated using enzyme mix from S. aureus.

T1 sequence (P0A6K3 whole entry): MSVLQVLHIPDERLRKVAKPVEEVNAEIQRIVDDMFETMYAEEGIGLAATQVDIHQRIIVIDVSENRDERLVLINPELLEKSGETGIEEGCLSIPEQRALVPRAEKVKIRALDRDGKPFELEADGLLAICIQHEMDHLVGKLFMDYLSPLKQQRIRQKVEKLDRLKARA

Compound: COC(=O)CNC(=O)c1ccc2c(c1)nc(C(CCSC)NC(=O)CCC(=O)O)n2Cc1ccccc1 (stereo not drawn) [Example 3, N-{1-[1-Benzyl-5-(methoxycarbonylmethyl-carbamoyl)-1H-benzoimidazol-2-yl]-3-methylsulfanyl-propyl}-succinamic acid]
IC50 [1]: 80 µM
IC50 [2]: 31.4 µM

IC50 [2]: 0.496 µM
Compound: COC(=O)CNC(=O)c1ccc2c(c1)nc(C(CC(C)C)NC(=O)CCC(=O)NO)n2C1CC1 (stereo not drawn) [Example 33, ({1-Cyclopropyl-2-[1-(3-hydroxycarbamoyl-propionylamino)-3-methyl-butyl]-1H-benzoimidazole-5-carbonyl}-amino)-acetic acid methyl ester]

Compound: COC(=O)CNC(=O)c1ccc2c(c1)nc(C(CCCCN)NC(=O)CCS)n2Cc1ccccc1 (stereo not drawn) [Example 49, ({2-[5-Amino-1-(3-mercapto-propionylamino)-pentyl]-1-benzyl-1H-benzoimidazole-5-carbonyl}-amino)-acetic acid methyl ester]
IC50 [1]: 5.2 µM
IC50 [2]: 2.4 µM

Compound: COC(=O)CNC(=O)c1ccc2c(c1)nc(C(CCSC)NC(=O)CCC(=O)O)n2C1CC1 (stereo not drawn) [Example 16, N-{1-[1-Cyclopropyl-5-(methoxycarbonylmethyl-carbamoyl)-1H-benzoimidazol-2-yl]-3-methylsulfanyl-propyl}-succinamic acid]
IC50 [1]: 47.2 µM
IC50 [2]: 17.6 µM

Compound: CCC(NC(=O)CCC(=O)O)c1nc2cc(C(=O)NCC(=O)OC)ccc2n1Cc1ccccc1 (stereo not drawn) [Example 12, N-{1-[1-Benzyl-5-(methoxycarbonylmethyl-carbamoyl)-1H-benzoimidazol-2-yl]-propyl}-succinamic acid]
IC50 [1]: 4.8 µM
IC50 [2]: 0.068 µM

IC50 [2]: 0.804 µM
Compound: COC(=O)CNC(=O)c1ccc2c(c1)nc(C(CC(C)C)NC(=O)CCC(=O)NO)n2Cc1ccccc1 (stereo not drawn) [Example 35, ({1-Benzyl-2-[1-(3-hydroxycarbamoyl-propionylamino)-3-methyl-butyl]-1H-benzoimidazole-5-carbonyl}-amino)-acetic acid methyl ester]

Compound: COC(=O)CNC(=O)c1ccc2c(c1)nc(C(Cc1cccc3ccccc13)NC(=O)CCC(=O)NO)n2Cc1ccccc1 (stereo not drawn) [Example 46, ({1-Benzyl-2-[1-(3-hydroxycarbamoyl-propionylamino)-2-naphthalen-1-yl-ethyl]-1H-benzoimidazole-5-carbonyl}-amino)-acetic acid methyl ester]
IC50 [1]: 6.5 µM
IC50 [2]: 0.9 µM

Compound: COC(=O)CNC(=O)c1ccc2c(c1)nc(C(Cc1ccccc1)NC(=O)CCS)n2CCN (stereo not drawn) [Example 50, ({1-(2-Amino-ethyl)-2-[1-(3-mercapto-propionylamino)-2-phenyl-ethyl]-1H-benzoimidazole-5-carbonyl}-amino)-acetic acid methyl ester]
IC50 [1]: 7.2 µM
IC50 [2]: 3.8 µM

Compound: COC(=O)CNC(=O)c1ccc2c(c1)nc(C(Cc1ccccc1)NC(=O)CCC(=O)NO)n2Cc1ccc(Cl)cc1 (stereo not drawn) [Example 40, ({1-(4-Chloro-benzyl)-2-[1-(3-hydroxycarbamoyl-propionylamino)-2-phenyl-ethyl]-1H-benzoimidazole-5-carbonyl}-amino)-acetic acid methyl ester]
IC50 [1]: 1.4 µM
IC50 [2]: 0.021 µM

Compound: COC(=O)CNC(=O)c1ccc2c(c1)nc(C(Cc1ccccc1)NC(=O)CCC(=O)O)n2CCO (stereo not drawn) [Example 27, N-{1-[1-(2-Hydroxy-ethyl)-5-(methoxycarbonylmethyl-carbamoyl)-1H-benzoimidazol-2-yl]-2-phenyl-ethyl}-succinamic acid]
IC50 [1]: 41.8 µM
IC50 [2]: 27.7 µM

Compound: COC(=O)CNC(=O)c1ccc2c(c1)nc(C(CCSC)NC(=O)CCC(=O)NO)n2Cc1ccccc1 (stereo not drawn) [Example 38]
IC50 [1]: 25.8 µM
IC50 [2]: 3.5 µM

Compound: CCCCn1c(C(Cc2ccccc2)NC(=O)CCC(=O)NO)nc2cc(C(=O)NCC(=O)OC)ccc21 (stereo not drawn) [Example 47, ({1-Butyl-2-[1-(3-hydroxycarbamoyl-propionylamino)-2-phenyl-ethyl]-1H-benzoimidazole-5-carbonyl}-amino)-acetic acid methyl ester]
IC50 [1]: 5.3 µM
IC50 [2]: 0.019 µM

Compound: COC(=O)CNC(=O)c1ccc2c(c1)nc(C(Cc1cccc3ccccc13)NC(=O)CCC(=O)NO)n2CCc1cccs1 (stereo not drawn) [Example 44, {[2-[1-(3-Hydroxycarbamoyl-propionylamino)-2-naphthalen-1-yl-ethyl]-1-(2-thiophen-2-yl-ethyl)-1H-benzoimidazole-5-carbonyl]-amino}-acetic acid methyl ester]
IC50 [1]: 3.1 µM

Compound: COC(=O)CNC(=O)c1ccc2c(c1)nc(C(Cc1cccc3ccccc13)NC(=O)CCC(=O)O)n2CCc1cccs1 (stereo not drawn) [Example 17, N-{1-[5-(Methoxycarbonylmethyl-carbamoyl)-1-(2-thiophen-2-yl-ethyl)-1H-benzoimidazol-2-yl]-2-naphthalen-1-yl-ethyl}-succinamic acid]
IC50 [1]: 0.071 µM
IC50 [2]: 0.099 µM

Compound: COC(=O)CNC(=O)c1ccc2c(c1)nc(C(Cc1ccccc1)NC(=O)CCC(=O)NO)n2Cc1ccco1 (stereo not drawn) [Example 39, ({1-Furan-2-ylmethyl-2-[1-(3-hydroxycarbamoyl-propionylamino)-2-phenyl-ethyl]-1H-benzoimidazole-5-carbonyl}-amino)-acetic acid methyl ester]
IC50 [1]: 1.5 µM

Compound: CCC(NC(=O)CCC(=O)NO)c1nc2cc(C(=O)NCC(=O)OC)ccc2n1Cc1ccco1 (stereo not drawn) [Example 31, ({1-Furan-2-ylmethyl-2-[1-(3-hydroxycarbamoyl-propionylamino)-propyl]-1H-benzoimidazole-5-carbonyl}-amino)-acetic acid methyl ester]
IC50 [1]: 0.098 µM
IC50 [2]: 0.151 µM

IC50 [2]: 2.27 µM
Compound: CCCCn1c(C(CC(C)C)NC(=O)CCC(=O)NO)nc2cc(C(=O)NCC(=O)OC)ccc21 (stereo not drawn) [Example 34, ({1-Butyl-2-[1-(3-hydroxycarbamoyl-propionylamino)-3-methyl-butyl]-1H-benzoimidazole-5-carbonyl}-amino)-acetic acid methyl ester]

Compound: COC(=O)CNC(=O)c1ccc2c(c1)nc(C(Cc1cccc3ccccc13)NC(=O)CCC(=O)O)n2Cc1ccccc1 (stereo not drawn) [Example 30, N-{1-[1-Benzyl-5-(methoxycarbonylmethyl-carbamoyl)-1H-benzoimidazol-2-yl]-2-naphthalen-1-yl-ethyl}-succinamic acid]
IC50 [1]: 7 µM

Compound: COC(=O)CNC(=O)c1ccc2c(c1)nc(C(Cc1ccc(O)cc1)NC(=O)CCS)n2C1CC1 (stereo not drawn) [Example 20, ({1-Cyclopropyl-2-[2-(4-hydroxy-phenyl)-1-(3-mercapto-propionylamino)-ethyl]-1H-benzoimidazole-5-carbonyl}-amino)-acetic acid methyl ester]
IC50 [1]: > 200 µM
IC50 [2]: > 200 µM

Compound: COC(=O)CNC(=O)c1ccc2c(c1)nc(C(Cc1ccccc1)NC(=O)CCS)n2Cc1ccc(Cl)cc1 (stereo not drawn) [Example 2, ({1-(4-Chloro-benzyl)-2-[1-(3-mercapto-propionylamino)-2-phenyl-ethyl]-1H-benzoimidazole-5-carbonyl}-amino)-acetic acid methyl ester]
IC50 [1]: 22.1 µM
IC50 [2]: 6.1 µM

Compound: COC(=O)CNC(=O)c1ccc2c(c1)nc(C(CCc1ccccc1)NC(=O)CCC(=O)O)n2C1CC1 (stereo not drawn) [Example 7, N-{1-[1-Cyclopropyl-5-(methoxycarbonylmethyl-carbamoyl)-1H-benzoimidazol-2-yl]-3-phenyl-propyl}-succinamic acid]
IC50 [1]: 2.6 µM
IC50 [2]: 2.7 µM

Compound: CCCCn1c(C(Cc2cccc3ccccc23)NC(=O)CCC(=O)NO)nc2cc(C(=O)NCC(=O)OC)ccc21 (stereo not drawn) [Example 45, ({1-Butyl-2-[1-(3-hydroxycarbamoyl-propionylamino)-2-naphthalen-1-yl-ethyl]-1H-benzoimidazole-5-carbonyl}-amino)-acetic acid methyl ester]
IC50 [1]: 5.8 µM

Compound: COC(=O)CNC(=O)c1ccc2c(c1)nc(C(CCSC)NC(=O)CCC(=O)NO)n2CC1CCCCC1 (stereo not drawn) [Example 37, ({1-Cyclohexylmethyl-2-[1-(3-hydroxycarbamoyl-propionylamino)-3-methylsulfanyl-propyl]-1H-benzoimidazole-5-carbonyl}-amino)-acetic acid methyl ester]
IC50 [1]: 0.317 µM

IC50 [2]: 1.5 µM
Compound: COC(=O)CNC(=O)c1ccc2c(c1)nc(C(CCSC)NC(=O)CCC(=O)NO)n2C1CC1 (stereo not drawn) [Example 36, ({1-Cyclopropyl-2-[1-(3-hydroxycarbamoyl-propionylamino)-3-methylsulfanyl-propyl]-1H-benzoimidazole-5-carbonyl}-amino)-acetic acid methyl ester]
